# According to patent publication US7339026B2, “mda-9 protein” (The Trustees of Columbia University In the City of New York, priority 1996, dated 2008):
# Tests used:
# Assay type in all cases: cell-based, human
# HO-1 = assay: Growth of cell line with IFN-β and MEZ, alone and in combination (Coulter Counter cell numbers); conditions: for Cell numbers (average of triplicate plates ± S.D.) / percent of control growth: HO-1, 96-h growth, IFN-β 2000 U/ml, MEZ 10 ng/ml, IFN-β + MEZ 2000 U/ml + 10 ng/ml
# Procedure: (§1) Cell Lines and Culture Conditions. H0-1 is a melanotic melanoma cell line produced from a metastatic inguinal lymph node lesion from a person and was used between passages 150 and 175 (13,21,22). FM516-SV is a normal human melanocyte culture immortalized by the SV40 T-antigen gene (23). Additional melanoma cell lines established from patients with metastatic melanomas that were evaluated, include LO-1, SH-1, WM239, MeWo, SKMEL-p53 wt (containing a wild-type p53 gene) and SKMEL-p53 mut (containing a mutant p53 gene) (13,21,24). Cultures were grown at 37° C. in a 95% air 5% C02-humidified incubator in Dulbecco's modified Eagle's medium (DMEM) supplemented with 5 or 10% fetal bovine serum (Hyclone, Utah). Cultures were maintained in the logarithmic phase of growth by subculturing (1:5 or 1:10) prior to confluence approximately every 4 to 7 d. For determining steady-state RNA expression, cultures were seeded at 1.5×10^6 cells per 10-cm tissue culture plate, and 24 h later the medium was changed without inducers or with IFN-β (2000 U/ml), MEZ (10 ng/ml) or IFN-β+MEZ (2000 U/ml+10 ng/ml). Total cytoplasmic RNA was isolated at various time points and analyzed for mda-9 and GAPDH expression.
# MeWo = assay: as above; conditions: 96-h growth, IFN-β 2000 U/ml, MEZ 10 ng/ml, IFN-β + MEZ 2000 U/ml + 10 ng/ml
# Procedure: as §1
# SKMEL-p53 mut = assay: as above; conditions: 96-h growth, IFN-β 2000 U/ml, MEZ 10 ng/ml, IFN-β + MEZ 2000 U/ml + 10 ng/ml
# Procedure: as §1
# LO-1 = assay: as above; conditions: 96-h growth, IFN-β 2000 U/ml, MEZ 10 ng/ml, IFN-β + MEZ 2000 U/ml + 10 ng/ml
# Procedure: as §1
# FM516-SV [1] = assay: as above; conditions: 96-h growth, IFN-β 2000 U/ml, MEZ 10 ng/ml, IFN-β + MEZ 2000 U/ml + 10 ng/ml
# Procedure: as §1
# SH-1 = assay: as above; conditions: 96-h growth, IFN-β 2000 U/ml, MEZ 10 ng/ml, IFN-β + MEZ 2000 U/ml + 10 ng/ml
# Procedure: as §1
# SKMEL-p53 wt = assay: as above; conditions: 96-h growth, IFN-β 2000 U/ml, MEZ 10 ng/ml, IFN-β + MEZ 2000 U/ml + 10 ng/ml
# Procedure: as §1
# WM239 = assay: as above; conditions: 96-h growth, IFN-β 2000 U/ml, MEZ 10 ng/ml, IFN-β + MEZ 2000 U/ml + 10 ng/ml
# Procedure: as §1
# [2] = system: mda-9 expression in H0-1 cells; assay: mda-9 RNA expression by Northern blotting, equalized to GAPDH
# Procedure: FIG. 1. Temporal expression of mda-9 in H0-1 cells exposed to IFN-β+MEZ. RNAs were isolated from untreated and H0-1 cells treated with IFN-β+MEZ (2000 U/ml+10 ng/ml) for 0.25, 0.5, 1, 2, 4, 8, 12 and 24 h. Ten micrograms of total cellular RNA were separated on 1% agarose gel, transferred to nylon membranes, sequentially hybridized with an mda-9 and then a GAPDH probe, and then exposed to autoradiography.
# FIG. 4. Effect of interferons on mda-9 expression in H0-1 cells. H0-1 cells were grown for 96 h in the absence or presence of IFN-α (100 and 1000 U/ml), IFN-β (100 and 1000 U/ml) or IFN-γ (100 U/ml) and RNA was analyzed as described in FIG. 1.
# FIGS. 9A-9B. Temporal and dose kinetics of IFN-γ enhancement in mda-9 expression in H0-1 human melanoma cells. H0-1 cells were treated for the indicated time (FIG. 9A) and dose (FIG. 9B) of IFN-γ, RNA was then isolated and analyzed by Northern blotting. […] Replicate samples varied by ≦15%.
# as §1
# RNA Isolation, Northern Blotting and Southern Blotting of Genomic DNAs. Total cellular RNA was isolated by the guanidinium/phenol procedure and Northern blotting was performed as described (30-32). Ten μg of RNA were denatured with glyoxal/dimethyl sulfoxide (DMSO), electrophoresed on 1.0% agarose gels, transferred to nylon membranes and hybridized to a ^32P-labeled mda-9 probe and then after stripping the membranes were hybridized to a ^32P-labeled rat GAPDH probe (33) as described previously (30-32). […] RNA blots were quantitated by densitometric analysis using a Molecular Dynamics densitometer (Sunnyvale, Calif.) (34). […]
# C8161 = assay: Effect of recombinant immune interferon (IFN-γ) on growth (cell numbers); conditions: 96 hr
# Source text: (§2) Cell lines and culture conditions. H0-1 is a melanotic melanoma cell line produced from a metastatic inguinal node lesion from a person and was used between passages 170 and 200 (Giovanella et al., 1976; Huberman et al., 1979; Fisher et al., 1985). C8161 is a highly metastatic amelanotic human melanoma cell line derived from an abdominal wall metastasis (Welch et al., 1991). FM516-SV is a normal human melanocyte culture immortalized by the SV40 T-antigen gene (Melber et al., 1989). The WM35 cell line was isolated from a patient with a radial growth phase primary melanoma (Herlyn, 1990). The WM278 cell line is from a patient with an early vertical growth phase primary melanoma (Herlyn, 1990). Cultures were grown at 37° C. in a 95% air 5% C02-humidified incubator in Dulbecco's modified Eagle's medium (DMEM) supplemented with 5 or 10% fetal bovine serum. Cultures were maintained in the logarithmic phase of growth by subculturing (1:5 or 1:10) prior to confluence approximately every 4 to 7 D.
# FM516-SV [3] = assay: as above; conditions: 96 hr
# Source text: as §2
# H0-1 = assay: as above; conditions: 96 hr
# Source text: as §2
# WM278 = assay: as above; conditions: 96 hr
# Source text: as §2
# WM35 = assay: as above; conditions: 96 hr
# Source text: as §2
# [4] = system: mda-9 expression in FM516-SV cells; assay: mda-9 RNA expression by Northern blotting, densitometer comparison with GAPDH
# Procedure: FIG. 2. Effects of IFN-β+MEZ on mda-9 expression in human melanoma cells and an SV40-immortalized human melanocyte cell line. The indicated cell line was grown in the presence or absence of IFN-β+MEZ (2000 U/ml+10 ng/ml) for 96 h and RNA was analyzed as described in FIG. 1.
# as §1, with “Cultures were maintained in the logarithmic phase of growth by subculturing (1:5 or 1:10) prior to confluence approximately every 4 to 7 d. For determining steady-state RNA expression, cultures were seeded at 1.5×10^6 cells per 10-cm tissue culture plate, and 24 h later the medium was changed without inducers or with IFN-β (2000 U/ml), MEZ (10 ng/ml) or IFN-β+MEZ (2000 U/ml+10 ng/ml).” left out
# RNA Isolation, Northern Blotting and Southern Blotting of Genomic DNAs. […] RNA blots were quantitated by densitometric analysis using a Molecular Dynamics densitometer (Sunnyvale, Calif.) (34). […]
# H0-1 cells = assay: Effect of interferons on growth of H0-1 cells (FIG. 3); conditions: 4 d treatment with 100 U/ml interferon
# Procedure: FIG. 3. […] Results are the average cell number ±S.D. from the mean.
# Experiments were performed to determine if a relationship exists between growth suppression and reduced mda-9 expression. To test this connection, the effect of interferon and MEZ treatment on proliferation and mda-9 expression in human melanoma cells was determined.
# [5] = H0-1 cells grown for 4 days in 10 ng/ml of MEZ
molecule,measurement,setting,value
"C=C(C)[C@@]12O[C@@]3(c4ccccc4)O[C@@H]1[C@@H]1[C@@H]4O[C@]4(CO)[C@@H](O)[C@]4(O)C(=O)C(C)=C[C@H]4[C@@]1(O3)[C@H](C)[C@H]2OC(=O)/C=C/C=C/c1ccccc1 [MEZ, mezerein, reference compound]",growth reduction,HO-1; [5],~74%
same,Cell numbers (average of triplicate plates ± S.D.),HO-1,16.8 ± 1.0
same,percent of control growth,HO-1,26%
same,Cell numbers (average of triplicate plates ± S.D.),MeWo,15.4 ± 1.9
same,percent of control growth,MeWo,46%
same,Cell numbers (average of triplicate plates ± S.D.),SKMEL-p53 mut,21.5 ± 4.3
same,percent of control growth,SKMEL-p53 mut,60%
same,Cell numbers (average of triplicate plates ± S.D.),LO-1,4.7 ± 0.4
same,percent of control growth,LO-1,28%
same,Cell numbers (average of triplicate plates ± S.D.),FM516-SV [1],12.7 ± 1.8
same,percent of control growth,FM516-SV [1],60%
same,Cell numbers (average of triplicate plates ± S.D.),SH-1,14.1 ± 0.3
same,percent of control growth,SH-1,57%
same,Cell numbers (average of triplicate plates ± S.D.),SKMEL-p53 wt,3.6 ± 0.7
same,percent of control growth,SKMEL-p53 wt,21%
same,Cell numbers (average of triplicate plates ± S.D.),WM239,19.7 ± 1.2
same,percent of control growth,WM239,40%
same,mda-9 expression,[2]; [5],unaffected
"IFN-γ: Recombinant human IFN-γ (type II, immune interferon)",average cell number ± S.D.,C8161; 1 U/ml of IFN-γ,24.4 ± 0.8
same,percent of cell number reduction versus control,C8161; 1 U/ml of IFN-γ,30%
same,average cell number ± S.D.,C8161; 10 U/ml of IFN-γ,25.1 ± 0.8
same,percent of cell number reduction versus control,C8161; 10 U/ml of IFN-γ,28%
same,average cell number ± S.D.,C8161; 100 U/ml of IFN-γ,22.2 ± 1.4
same,percent of cell number reduction versus control,C8161; 100 U/ml of IFN-γ,36%
same,average cell number ± S.D.,FM516-SV [3]; 1 U/ml of IFN-γ,16.8 ± 0.5
same,percent of cell number reduction versus control,FM516-SV [3]; 1 U/ml of IFN-γ,19%
same,average cell number ± S.D.,FM516-SV [3]; 10 U/ml of IFN-γ,9.8 ± 0.6
same,percent of cell number reduction versus control,FM516-SV [3]; 10 U/ml of IFN-γ,52%
same,average cell number ± S.D.,FM516-SV [3]; 100 U/ml of IFN-γ,5.1 ± 0.3
same,percent of cell number reduction versus control,FM516-SV [3]; 100 U/ml of IFN-γ,75%
same,average cell number ± S.D.,H0-1; 1 U/ml of IFN-γ,15.8 ± 0.5
same,percent of cell number reduction versus control,H0-1; 1 U/ml of IFN-γ,22%
same,average cell number ± S.D.,H0-1; 10 U/ml of IFN-γ,15.4 ± 0.3
same,percent of cell number reduction versus control,H0-1; 10 U/ml of IFN-γ,24%
same,average cell number ± S.D.,H0-1; 100 U/ml of IFN-γ,11.5 ± 1.3
same,percent of cell number reduction versus control,H0-1; 100 U/ml of IFN-γ,44%
same,average cell number ± S.D.,WM278; 1 U/ml of IFN-γ,14.9 ± 0.8
same,percent of cell number reduction versus control,WM278; 1 U/ml of IFN-γ,33%
same,average cell number ± S.D.,WM278; 10 U/ml of IFN-γ,12.7 ± 1.0
same,percent of cell number reduction versus control,WM278; 10 U/ml of IFN-γ,42%
same,average cell number ± S.D.,WM278; 100 U/ml of IFN-γ,12.5 ± 0.6
same,percent of cell number reduction versus control,WM278; 100 U/ml of IFN-γ,44%
same,average cell number ± S.D.,WM35; 1 U/ml of IFN-γ,84.8 ± 6.7
same,percent of cell number reduction versus control,WM35; 1 U/ml of IFN-γ,2%
same,average cell number ± S.D.,WM35; 10 U/ml of IFN-γ,62.7 ± 4.3
same,percent of cell number reduction versus control,WM35; 10 U/ml of IFN-γ,28%
same,average cell number ± S.D.,WM35; 100 U/ml of IFN-γ,28.2 ± 1.7
same,percent of cell number reduction versus control,WM35; 100 U/ml of IFN-γ,67%
same,dose giving maximum enhancing effects on mda-9 expression,[4]; IFN-γ dose-response,10 U/ml
same,low dose at which mda-9 expression is elevated,[4]; IFN-γ dose-response (data not shown),0.1 U/ml
same,time at which enhanced mda-9 expression is apparent,"[2]; H0-1, 100 U/ml of recombinant human IFN-γ",≤ 2 h
same,dose giving maximum enhancing effects on mda-9 expression,"[2]; H0-1, IFN-γ dose-response",10 U/ml
same,low dose at which mda-9 expression is elevated,"[2]; H0-1, IFN-γ dose-response",0.1 U/ml
same,reduction of H0-1 growth,H0-1 cells,~43%
"IFN-β: Recombinant human IFN-β, with a serine substituted for a cysteine at position 17 of the molecule (protein, UniProt P01574 22-187, looked up, variant C17S) Interferon beta: MSYNLLGFLQRSSNFQSQKLLWQLNGRLEYCLKDRMNFDIPEEIKQLQQFQKEDAALTIYEMLQNIFAIFRQDSSSTGWNETIVENLLANVYHQINHLKTVLEEKLEKEDFTRGKLMSSLHLKRYYGRILHYLKAKEYSHCAWTIVRVEILRNFYFINRLTGYLRN",Cell numbers (average of triplicate plates ± S.D.),HO-1,14.0 ± 2.6
same,percent of control growth,HO-1,(22) %
same,Cell numbers (average of triplicate plates ± S.D.),MeWo,15.6 ± 1.9
same,percent of control growth,MeWo,(46) %
same,Cell numbers (average of triplicate plates ± S.D.),SKMEL-p53 mut,39.5 ± 7.5
same,percent of control growth,SKMEL-p53 mut,(109) %
same,Cell numbers (average of triplicate plates ± S.D.),LO-1,1.3 ± 0.3
same,percent of control growth,LO-1,(8) %
same,Cell numbers (average of triplicate plates ± S.D.),FM516-SV [1],7.8 ± 1.0
same,percent of control growth,FM516-SV [1],(37) %
same,Cell numbers (average of triplicate plates ± S.D.),SH-1,14.3 ± 1.5
same,percent of control growth,SH-1,(57) %
same,Cell numbers (average of triplicate plates ± S.D.),SKMEL-p53 wt,9.1 ± 0.3
same,percent of control growth,SKMEL-p53 wt,(54) %
same,Cell numbers (average of triplicate plates ± S.D.),WM239,9.5 ± 0.9
same,percent of control growth,WM239,(19) %
same,reduction of H0-1 growth,H0-1 cells,~70%
